Results published in patent US12161722B2, “Bifunctional heterocyclic compound having BTK degradation function via ubiquitin proteasome pathway, and use thereof” (KOREA RESEARCH INSTITUTE OF CHEMICAL TECHNOLOGY, priority 2021, dated 2024).

These molecules were tested against T1, WT BTK protein (Homo sapiens, UniProt Q06187) (assay: BTK protein degradation assay (Western blotting), WT BTK). Settings: concentration range accounting for 50% degradation of WT BTK protein, TMD-8 or RAMOS cells, 24 hours.
T1 construct: measured for intracellular BTK protein levels by Western blotting; endogenous in cells; host or cells: TMD-8 or RAMOS cells
T1 sequence (Q06187 whole entry): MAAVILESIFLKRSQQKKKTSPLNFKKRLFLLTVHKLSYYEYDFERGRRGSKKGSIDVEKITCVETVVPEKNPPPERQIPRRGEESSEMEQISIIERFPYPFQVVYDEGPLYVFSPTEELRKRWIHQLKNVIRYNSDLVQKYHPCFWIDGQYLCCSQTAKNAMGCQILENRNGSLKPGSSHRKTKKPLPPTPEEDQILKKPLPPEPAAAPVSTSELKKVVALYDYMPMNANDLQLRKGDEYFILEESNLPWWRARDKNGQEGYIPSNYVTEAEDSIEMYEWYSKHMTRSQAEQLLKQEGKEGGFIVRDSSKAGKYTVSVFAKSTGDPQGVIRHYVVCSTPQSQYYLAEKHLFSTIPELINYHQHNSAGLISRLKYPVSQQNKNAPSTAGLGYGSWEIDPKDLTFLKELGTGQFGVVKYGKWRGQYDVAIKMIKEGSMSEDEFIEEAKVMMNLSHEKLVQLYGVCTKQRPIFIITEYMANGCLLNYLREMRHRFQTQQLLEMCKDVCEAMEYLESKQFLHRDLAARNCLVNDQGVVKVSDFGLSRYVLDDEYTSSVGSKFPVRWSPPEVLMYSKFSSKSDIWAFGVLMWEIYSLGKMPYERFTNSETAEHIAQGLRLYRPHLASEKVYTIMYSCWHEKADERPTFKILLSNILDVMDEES
Type: cell-based
Procedure, shortened: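 TMD-8 cells (1×10^6 cells/mL) treated 24 h with compound serial dilutions, then lysed in RIPA. Equal protein loads analysed by Western blot for BTK with GAPDH/β-actin as loading controls; activity binned by concentration giving 50% WT BTK degradation.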
With Cc1cccc(C)c1Nc1nn(C)c2nc(Nc3ccc4c(c3)CN(CC(=O)NC3CCN(c5ccc6c(c5)C(=O)N(C5CCC(=O)NC5=O)C6=O)CC3)CC4)ncc12 (centres unmarked) [Compound 97, 2-(7-((3-((2,6-dimethylphenyl)amino)-1-methyl-1H-pyrazolo[3,4-d]pyrimidin-6-yl)amino)-3,4-dihydroisoquinolin-2 (1H)-yl)-N-(1-(2-(2,6-dioxopiperidin-3-yl)-1,3-dioxoisoindolin-5-yl)piperidin-4-yl)acetamide] the DC50 was 0.1 to 10 nM.
In the case of Cc1cc(F)cc(C)c1Nc1nn(C)c2nc(Nc3ccc4c(c3)CN(CC3CCN(c5ccc6c(c5)C(=O)N(C5CCC(=O)NC5=O)C6=O)CC3)CC4)ncc12 (centres unmarked) [Compound 221, 2-(2,6-dioxopiperidin-3-yl)-5-(4-((7-((3-((4-fluoro-2,6-dimethylphenyl)amino)-1-methyl-1H-pyrazolo[3,4-d]pyrimidin-6-yl)amino)-3,4-dihydroisoquinolin-2 (1H)-yl)methyl)piperidin-1-yl)isoindoline-1,3-dione], the DC50 is reported as 0.1 to 10 nM.
Cc1cccc(C)c1Nc1nn(C)c2nc(Nc3ccc4c(c3)CN(CC3CN(C(=O)COc5ccc6c(c5)C(=O)N(C5CCC(=O)NC5=O)C6=O)C3)CC4)ncc12 (centres unmarked) [Compound 49, 5-(2-(3-((7-((3-((2,6-Dimethylphenyl)amino)-1-methyl-1H-pyrazolo[3,4-d]pyrimidin-6-yl)amino)-3,4-dihydroisoquinolin-2 (1H)-yl)methyl)azetidin-1-yl)-2-oxoethoxy)-2-(2,6-dioxopiperidin-3-yl)isoindoline-1,3-dione] showed a DC50 of 10 to 1000 nM.
For Cc1cccc(C)c1Nc1nn(C)c2nc(Nc3ccc4c(c3)CN(C(=O)COc3ccc5c(c3)C(=O)N(C3CCC(=O)NC3=O)C5=O)CC4)ncc12 (centres unmarked) [Compound 194, 5-(2-(7-((3-((2,6-Dimethylphenyl)amino)-1-methyl-1H-pyrazolo[3,4-d]pyrimidin-6-yl)amino)-3,4-dihydroisoquinolin-2 (1H)-yl)-2-oxoethoxy)-2-(2,6-dioxopiperidin-3-yl)isoindoline-1,3-dione], the DC50 was 10 to 1000 nM.
With Cc1cccc(C)c1Nc1nn(C)c2nc(Nc3ccc4c(c3)CCN(CC3CCN(C(=O)CNc5ccc6c(c5)C(=O)N(C5CCC(=O)NC5=O)C6=O)CC3)C4)ncc12 (centres unmarked) [Compound 110, 5-((2-(4-((6-((3-((2,6-Dimethylphenyl)amino)-1-methyl-1H-pyrazolo[3,4-d]pyrimidin-6-yl)amino)-3,4-dihydroisoquinolin-2 (1H)-yl)methyl)piperidin-1-yl)-2-oxoethyl)amino)-2-(2,6-dioxopiperidin-3-yl)isoindoline-1,3-dione] the DC50 was 0.1 to 10 nM.
Work on Cc1cccc(C)c1Nc1nn(C)c2nc(Nc3ccc4c(c3)CN(C(=O)C3CCN(C(=O)CNc5ccc6c(c5)C(=O)N(C5CCC(=O)NC5=O)C6=O)CC3)CC4)ncc12 (centres unmarked) [Compound 45, 5-((2-(4-(7-((3-((2,6-Dimethylphenyl)amino)-1-methyl-1H-pyrazolo[3,4-d]pyrimidin-6-yl)amino)-1,2,3,4-tetrahydroisoquinoline-2-carbonyl)piperidin-1-yl)-2-oxoethyl)amino)-2-(2,6-dioxopiperidin-3-yl)isoindoline-1,3-dione] yielded a DC50 of 0.1 to 10 nM.
Cc1cccc(C)c1Nc1nn(C)c2nc(Nc3ccc4c(c3)CN(CC3CCN(CC(=O)Nc5ccc6c(c5)CN(C5CCC(=O)NC5=O)C6=O)CC3)CC4)ncc12 (centres unmarked) [Compound 91, 2-(4-((7-((3-((2,6-Dimethylphenyl)amino)-1-methyl-1H-pyrazolo[3,4-d]pyrimidin-6-yl)amino)-3,4-dihydroisoquinolin-2 (1H)-yl)methyl)piperidin-1-yl)-N-(2-(2,6-dioxopiperidin-3-yl)-1-oxoisoindolin-5-yl)acetamide] showed a DC50 of 0.1 to 10 nM.
In the case of COc1ccc(C(=O)N2CCC(CC(=O)N3CCc4cc(Nc5ncc6c(Nc7c(C)cccc7C)nn(C)c6n5)ccc4C3)CC2)cc1N1CCC(=O)NC1=O [Compound 111, 1-(5-(4-(2-(6-((3-((2,6-Dimethylphenyl)amino)-1-methyl-1H-pyrazolo[3,4-d]pyrimidin-6-yl)amino)-3,4-dihydroisoquinolin-2 (1H)-yl)-2-oxoethyl)piperidine-1-carbonyl)-2-methoxyphenyl)dihydropyrimidine-2,4 (1H,3H)-dione], the DC50 is reported as 10 to 1000 nM.
Cc1cccc(C)c1Nc1nn(C)c2nc(Nc3ccc4c(c3)CN(C[C@@H]3[C@H]5CN(c6ccc7c(c6)C(=O)N(C6CCC(=O)NC6=O)C7=O)C[C@@H]35)CC4)ncc12 (stereo partly drawn) [Compound 148, 5-((1R,5S,6S)-6-((7-((3-((2,6-Dimethylphenyl)amino)-1-methyl-1H-pyrazolo[3,4-d]pyrimidin-6-yl)amino)-3,4-dihydroisoquinolin-2 (1H)-yl)methyl)-3-azabicyclo[3.1.0]hexan-3-yl)-2-(2,6-dioxopiperidin-3-yl)isoindoline-1,3-dione] was tested, and the DC50 was 0.1 to 10 nM.
Molecule Cc1cccc(C)c1Nc1nn(C)c2nc(Nc3ccc4c(c3)CN(C3CN(CC5CN(c6ccc7c(c6)C(=O)N(C6CCC(=O)NC6=O)C7=O)C5)C3)CC4)ncc12 (centres unmarked) [Compound 152, 5-(3-((3-(7-((3-((2,6-Dimethylphenyl)amino)-1-methyl-TH-pyrazolo[3,4-d]pyrimidin-6-yl)amino)-3,4-dihydroisoquinolin-2 (1H)-yl)azetidin-1-yl)methyl)azetidin-1-yl)-2-(2,6-dioxopiperidin-3-yl)isoindoline-1,3-dione] has a DC50 of 0.1 to 10 nM.
In the case of Cc1cccc(C)c1Nc1nn(C)c2nc(Nc3ccc(N4CCN(C5CCN(c6ccc7c(c6)C(=O)N(C6CCC(=O)NC6=O)C7=O)CC5)CC4)nc3)ncc12 (centres unmarked) [Compound 156, 5-(4-(4-(5-((3-((2,6-dimethylphenyl)amino)-1-methyl-1H-pyrazolo[3,4-d]pyrimidin-6-yl)amino)pyridin-2-yl)piperazin-1-yl)piperidin-1-yl)-2-(2,6-dioxopiperidin-3-yl)isoindoline-1,3-dione], the DC50 is reported as 0.1 to 10 nM.
Work on Cc1cccc(C)c1Nc1nn(C)c2nc(Nc3ccc4c(c3)CN(C(=O)C3(F)CCN(C(=O)CNc5ccc6c(c5)C(=O)N(C5CCC(=O)NC5=O)C6=O)CC3)CC4)ncc12 (centres unmarked) [Compound 247, 5-((2-(4-(7-((3-((2,6-Dimethylphenyl)amino)-1-methyl-1H-pyrazolo[3,4-d]pyrimidin-6-yl)amino)-1,2,3,4-tetrahydroisoquinoline-2-carbonyl)-4-fluoropiperidin-1-yl)-2-oxoethyl)amino)-2-(2,6-dioxopiperidin-3-yl)isoindoline-1,3-dione] yielded a DC50 of 0.1 to 10 nM.
Molecule Cc1cccc(C)c1Nc1nn(C)c2nc(Nc3ccc(C4CCN(C(=O)CN5CCN(c6ccc7c(c6)C(=O)N(C6CCC(=O)NC6=O)C7=O)CC5)CC4)c(F)c3)ncc12 (centres unmarked) [Compound 226, 5-(4-(2-(4-(4-((3-((2,6-Dimethylphenyl)amino)-1-methyl-1H-pyrazolo[3,4-d]pyrimidin-6-yl)amino)-2-fluorophenyl)piperidin-1-yl)-2-oxoethyl)piperazin-1-yl)-2-(2,6-dioxopiperidin-3-yl)isoindoline-1,3-dione] has a DC50 of 0.1 to 10 nM.
With Cc1cccc(C)c1Nc1nn(C)c2nc(Nc3ccc(C4CCN(C[C@@H]5CCN(c6ccc7c(c6)C(=O)N(C6CCC(=O)NC6=O)C7=O)C5)CC4)cc3)ncc12 (stereo partly drawn) [Compound 167, 5-((S)-3-((4-(4-((3-((2,6-Dimethylphenyl)amino)-1-methyl-1H-pyrazolo[3,4-d]pyrimidin-6-yl)amino)phenyl)piperidin-1-yl)methyl)pyrrolidin-1-yl)-2-(2,6-dioxopiperidin-3-yl)isoindoline-1,3-dione] the DC50 was 0.1 to 10 nM.
